Key:
[1] = tested on: FOP control vector (randomized, non-functional sequence instead of functional TCF elements) in HCT116 cells; assay: Control reporter assay, HCT116 cells stably transfected with FOP control vector (HCT116-FOP), luciferase readout; type: cell-based; conditions: Homo sapiens, HCT-116, 36 hours incubation, luciferase expression, dilution series up to 50 μM
Description: In a parallel approach, HCT116 cells were cotransfected with the FOP control vector and pcDNA3. The FOP vector is identical to the TOP construct, but it contains instead of functional TCF elements a randomized, non-functional sequence. For this transfection a stable transfected cell line was generated as well.
(§1) In preparation of the assay, the two cell lines were plated 24 hours before at 10000 cells per well of a 384 micro titre plate (MTP) in 30 μL growth medium. Selective inhibitory activity for small molecules on the mutated Wnt pathway was determined after parallel incubation of both (TOP and FOP) HCT116 reporter cell lines with a compound dilution series from 50 μM to 15 nM in steps of 3.16-fold dilutions in CAFTY buffer (130 mM NaCl, 5 mM KCl, 20 mM HEPES, 1 mM MgCl2, 5 mM NaHCO3, pH 7.4) containing 2 mM Ca^2+ and 0.01% BSA. The compounds were thereby serially prediluted in 100% DMSO and thereafter in addition 50 fold into the CAFTY compound dilution buffer (described above). From this dilution 10 μL were added to the cells in 30 μL growth medium and incubated for 36 hours at 37° C. and 5% CO2. Thereafter luciferase assay buffer (1:1 mixture of luciferase substrate buffer (20 mM Tricine, 2.67 mM MgSO4, 0.1 mM EDTA, 4 mM DTT, 270 μM Coenzyme A, 470 μM Luciferin, 530 μM ATP, ph adjusted to pH 7.8 with a sufficient volume of 5M NaOH) and Triton buffer (30 mL Triton X-100, 115 mL glycerol, 308 mg Dithiothreitol, 4.45 g Na2HPO4.2H2O, 3.03 g TRIS HCl, ad 1I H2O, pH 7.8) was added as equal volume to the compound solution on the cells to determine luciferase expression as a measure of Wnt signaling activity in a luminometer.

[2] = tested on: constitutive active colorectal cancer cell (CRC) Wnt pathway; assay: Cellular reporter assay, HCT116 cells stably transfected with Super TopFlash vector (HCT116-TOP), luciferase readout; type: cell-based; conditions: Homo sapiens, HCT-116, 36 hours incubation, luciferase expression, average or median values
Description: In order to discover and characterize small molecules which inhibit the constitutive active colorectal cancer cell (CRC) Wnt pathway, a cellular reporter assay was employed. The corresponding assay cell was generated by transfection of the colorectal cancer cell line HCT116 (ATCC, #CCL-247) with the Super TopFlash vector (Morin, Science 275, 1997, 1787-1790; Molenaar et al., Cell 86 (3), 1996, 391-399). The HCT116 cell line is cultivated at 37° C. and 5% CO2 in DMEM/F-12 (Life Technologies, #11320-074), supplemented with 2 mM glutamine, 20 mM HEPES, 1.4 mM pyruvate, 0.15% Na-bicarbonate and 10% foetal bovine serum (GIBCO, #10270), this cancer cell line is pathophysiological relevant since it carries a deletion of position S45 in the β-catenin gene, leading to constitutive active Wnt signaling. Stable transfectants were generated by cotransfection with pcDNA3 and selection of stable transfected cells with 1 mg/mL G418.
as §1

SMILES | IC50 [1] [nM] | IC50 [2] [nM]
O=C(CN1CCOCC1)Nc1cc(C(=O)Nc2ccc(-c3cnc(N4CCC4)nc3)cc2)ccc1OC(F)(F)F [Example 11, N-{4-[2-(azetidin-1-yl)pyrimidin-5-yl]phenyl}-3-[(morpholin-4-ylacetyl)amino]-4-(trifluoromethoxy)benzamide] | ≥ 50000 | 200
O=C(Nc1ccc(-c2cccnc2F)cc1)c1ccc(F)c(NC(=O)C2(N3CCOCC3)CC2)c1 [Example 26, 4-fluoro-N-[4-(2-fluoropyridin-3-yl)phenyl]-3-({[1-(morpholin-4-yl)cyclopropyl]carbonyl}-amino)benzamide] | ≥ 50000 | 14
CN1CCN(CC(=O)Nc2cc(C(=O)Nc3ccc(-c4ccc(N)nc4)cc3)ccc2OC(F)(F)F)CC1 [Example 34, N-[4-(6-aminopyridin-3-yl)phenyl]-3-{[(4-methylpiperazin-1-yl)acetyl]amino}-4-(trifluoromethoxy)-benzamide] | 28000 | 25.3
Cc1ncccc1-c1ccc(NC(=O)c2ccc(OC(F)(F)F)c(NC(=O)CN3CCOCC3)c2)cc1 [Example 16, N-[4-(2-methylpyridin-3-yl)phenyl]-3-[(morpholin-4-ylacetyl)amino]-4-(trifluoromethoxy)benzamide] | 41500 | 117
CN1CCN(CC(=O)Nc2cc(C(=O)Nc3ccc(-c4cnc(N)nc4)cc3)ccc2OC(F)(F)F)CC1 [Example 33] | ≥ 50000 | 55.5
COc1ccc(-c2ccc(NC(=O)c3ccc(OC(F)(F)F)c(NC(=O)CN4CCOCC4)c3)cc2)cn1 [Example 15, N-[4-(6-methoxypyridin-3-yl)phenyl]-3-[(morpholin-4-ylacetyl)amino]-4-(trifluoromethoxy)benzamide] | ≥ 50000 | 545
Nc1ncc(-c2ccc(NC(=O)c3ccc(Cl)c(NC(=O)C4(N5CCOCC5)CC4)c3)cc2)cn1 [Example 23, N-[4-(2-aminopyrimidin-5-yl)phenyl]-4-chloro-3-({[1-(morpholin-4-yl)cyclopropyl]carbonyl}amino)-benzamide] | ≥ 50000 | 26.2
Nc1ccc(-c2ccc(NC(=O)c3ccc(OC(F)(F)F)c(NC(=O)CN4CCOCC4)c3)cc2)cn1 [Example 7, N-[4-(6-aminopyridin-3-yl)phenyl]-3-[(morpholin-4-ylacetyl)amino]-4-(trifluoromethoxy)benzamide] | ≥ 50000 | 22.8
Cc1ccc(-c2ccc(NC(=O)c3ccc(OC(F)(F)F)c(NC(=O)CN4CCOCC4)c3)cc2)cn1 [Example 13, N-[4-(6-methylpyridin-3-yl)phenyl]-3-[(morpholin-4-ylacetyl)amino]-4-(trifluoromethoxy)benzamide] | ≥ 50000 | 557
O=C(CN1CCOCC1)Nc1cc(C(=O)Nc2ccc(-c3cnc(C(F)(F)F)nc3)cc2)ccc1OC(F)(F)F [Example 12, 3-[(morpholin-4-ylacetyl)amino]-4-(trifluoromethoxy)-N-{4-[2-(trifluoromethyl)pyrimidin-5-yl]phenyl}benzamide] | 32000 | 2660
COc1ccc(NC(=O)c2ccc(-c3cnn(C)c3)cc2)cc1NC(=O)CN1CCOCC1 [Example 36, N-{4-methoxy-3-[(morpholin-4-ylacetyl)amino]phenyl}-4-(1-methyl-1H-pyrazol-4-yl)benzamide] | ≥ 50000 | 15600
O=C(Nc1ccc(-c2cccnc2F)cc1)c1ccc(Cl)c(NC(=O)C2(N3CCOCC3)CC2)c1 [Example 22, 4-chloro-N-[4-(2-fluoropyridin-3-yl)phenyl]-3-({[1-(morpholin-4-yl)cyclopropyl]carbonyl}amino)-benzamide] | ≥ 50000 | 140
Cn1cc(-c2ccc(NC(=O)c3ccc(OC(F)(F)F)c(NC(=O)CN4CCOCC4)c3)cc2)cn1 [Example 5, N-[4-(1-methyl-1H-pyrazol-4-yl)phenyl]-3-[(morpholin-4-ylacetyl)amino]-4-(trifluoromethoxy)-benzamide] | ≥ 50000 | 160
O=C(CN1CCOCC1)Nc1cc(C(=O)Nc2ccc(-c3cn[nH]c3)cc2)ccc1OC(F)(F)F [Example 6, 3-[(morpholin-4-ylacetyl)amino]-N-[4-(1H-pyrazol-4-yl)phenyl]-4-(trifluoromethoxy)benzamide] | ≥ 50000 | 180
Nc1ccc(-c2ccc(NC(=O)c3ccc(OC(F)(F)F)c(NC(=O)C4(N5CCOCC5)CC4)c3)cc2)cn1 [Example 21, N-[4-(6-aminopyridin-3-yl)phenyl]-3-({[1-(morpholin-4-yl)cyclopropyl]carbonyl}amino)-4-(trifluoromethoxy)benzamide] | 46500 | 4.55
Nc1ncc(-c2ccc(NC(=O)c3ccc(OC(F)(F)F)c(NC(=O)C4(N5CCOCC5)CC4)c3)cc2)cn1 [Example 19, N-[4-(2-aminopyrimidin-5-yl)phenyl]-3-({[1-(morpholin-4-yl)cyclopropyl]carbonyl}amino)-4-(trifluoromethoxy)benzamide] | ≥ 50000 | 3.2
Nc1ncc(-c2ccc(NC(=O)c3ccc(OC(F)(F)F)c(NC(=O)CN4CCOCC4)c3)cc2)cn1 [Example 3, N-[4-(2-aminopyrimidin-5-yl)phenyl]-3-[(morpholin-4-ylacetyl)amino]-4-(trifluoromethoxy)-benzamide] | ≥ 50000 | 49
CN1CCN(CC(=O)Nc2cc(C(=O)Nc3ccc(-c4cncnc4)cc3)ccc2OC(F)(F)F)CC1 [Example 32, 3-{[(4-methylpiperazin-1-yl)acetyl]amino}-N-[4-(pyrimidin-5-yl)phenyl]-4-(trifluoromethoxy)benzamide] | 40000 | 47.5
Cc1ccc(C(=O)Nc2ccc(-c3cccnc3)cc2)cc1NC(=O)C1(N2CCOCC2)CC1 [Example 24, 4-methyl-3-({[1-(morpholin-4-yl)cyclopropyl]carbonyl}amino)-N-[4-(pyridin-3-yl)phenyl]benzamide] | ≥ 50000 | 34.1
COc1ccc(NC(=O)c2ccc(-c3cncnc3)cc2)cc1NC(=O)CN1CCOCC1 [Example 2, N-{4-methoxy-3-[(morpholin-4-ylacetyl)amino]phenyl}-4-(pyrimidin-5-yl)benzamide] | ≥ 50000 | 3110
COc1ncc(-c2ccc(NC(=O)c3ccc(OC(F)(F)F)c(NC(=O)CN4CCOCC4)c3)cc2)cn1 [Example 9, N-[4-(2-methoxypyrimidin-5-yl)phenyl]-3-[(morpholin-4-ylacetyl)amino]-4-(trifluoromethoxy)-benzamide] | ≥ 50000 | 410
O=C(CN1CCOCC1)Nc1cc(C(=O)Nc2ccc(-c3ccc(CO)nc3)cc2)ccc1OC(F)(F)F [Example 14, N-{4-[6-(hydroxymethyl)pyridin-3-yl]phenyl}-3-[(morpholin-4-ylacetyl)amino]-4-(trifluoromethoxy)benzamide] | ≥ 50000 | 377
O=C(CN1CCOCC1)Nc1cc(C(=O)Nc2ccc(-c3cccnc3F)cc2)ccc1OC(F)(F)F [Example 4, N-[4-(2-fluoropyridin-3-yl)phenyl]-3-[(morpholin-4-ylacetyl)amino]-4-(trifluoromethoxy)benzamide] | ≥ 50000 | 14.8
CN(C)c1ncc(-c2ccc(NC(=O)c3ccc(OC(F)(F)F)c(NC(=O)CN4CCOCC4)c3)cc2)cn1 [Example 10, N-{4-[2-(dimethylamino)pyrimidin-5-yl]phenyl}-3-[(morpholin-4-ylacetyl)amino]-4-(trifluoromethoxy)benzamide] | ≥ 50000 | 60.9
O=C(Nc1ccc(-c2cccnc2F)cc1)c1ccc(OC(F)(F)F)c(NC(=O)C2(N3CCOCC3)CC2)c1 [Example 20, N-[4-(2-fluoropyridin-3-yl)phenyl]-3-({[1-(morpholin-4-yl)cyclopropyl]carbonyl}amino)-4-(trifluoromethoxy)benzamide] | ≥ 50000 | 3.15
O=C(CN1CCOCC1)Nc1cc(C(=O)Nc2ccc(-c3cccnc3)cc2)ccc1OC(F)F [Example 27, 4-(difluoromethoxy)-3-[(morpholin-4-ylacetyl)amino]-N-[4-(pyridin-3-yl)phenyl]benzamide] | ≥ 50000 | 37

Reference: patent US20180042931A1 (Bayer Pharma Aktiengesellschaft, priority 2015, published 2018)
